Data taken from patent publication US9271497B2, “1-(substituted-benzoyl)-5-fluoro-4-imino-3-methyl-3,4-dihydropyrimidin-2(1H)-one derivatives” (DOW AGROSCIENCES LLC, priority 2012, dated 2016).

How the values were obtained:
[1] = system: Mycosphaerella graminicola; Anamorph: Septoria tritici; Bayer Code SEPTTR; experiment: Fungicidal activity against leaf blotch of wheat, one-day protectant (1DP); format: in vivo; settings: wheat plants (variety Yuma), % disease control rating
Experimental: (§1) Evaluation of Fungicidal Activity: Leaf Blotch of Wheat (Mycosphaerella graminicola; Anamorph: Septoria tritici; Bayer Code […]) Wheat plants (variety Yuma) were grown from seed in a greenhouse in 50% mineral soil/50% soil-less Metro mix until the first leaf was fully emerged, with 7-10 seedlings per pot. These plants were inoculated with an aqueous spore suspension of Septoria tritici either prior to or after fungicide treatments. After inoculation the plants were kept in 100% relative humidity (one day in a dark dew chamber followed by two to three days in a lighted dew chamber) to permit spores to germinate and infect the leaf. The plants were then transferred to a greenhouse for disease to develop. The following table presents the activity of typical compounds of the present disclosure when evaluated in these experiments. The effectiveness of the test compounds in controlling disease was determined by assessing the severity of disease on treated plants, then converting the severity to percent control based on the level of disease on untreated, inoculated plants.

[2] = system: Mycosphaerella graminicola; Anamorph: Septoria tritici; Bayer Code SEPTTR; experiment: Fungicidal activity against leaf blotch of wheat, three-day curative (3DC); format: in vivo; settings: wheat plants (variety Yuma), % disease control rating
Experimental: as §1

Row | melting point [°C] | Compound | SEPTTR 100 PPM 1DP [1] | SEPTTR 100 PPM 3DC [2]
1 | 141.6 to 142.6 | Cn1c(=N)c(F)cn(C(=O)c2cc(Cl)cc(Cl)c2)c1=O [Compound 1, 1-(3,5-dichlorobenzoyl)-5-fluoro-4-imino-3-methyl-3,4-dihydropyrimidin-2(1H)-one] | A (76-100) | A (76-100)
2 | 103 to 107 | Cc1ccc(C(=O)n2cc(F)c(=N)n(C)c2=O)cc1 [Compound 2] | A (76-100) | A (76-100)
